Test results: patent publication US12559529B2, “NPY2 receptor agonists” (Boehringer Ingelheim International GmbH, priority 2019, dated 2026)
*1 amine or outer side, *2 acyl side, *3 side chain or, on linkers, in order; H or OH if unused. Where a SMILES comes first, the peptide text is derived from it. Side-chain parts run from the residue outwards. The star is where a group is joined. C18 diacid = O=C(O)CCCCCCCCCCCCCCCCC(=O)*; γGlu = O=C(O)[C@H](CCC(=O)[*:2])N[*:1]; Isovaleryl = CC(C)CC(=O)*; AEEA = NCCOCCOCC(=O)O

molecular target: T1, Human Neuropeptide Y2 Receptor (Homo sapiens, UniProt P49146); experiment: Radioligand binding competition assay (RLB); settings: Table 3; human 125I-PYY (1-36) 0.02 nM, Y2 receptor membranes; read-out: Ki
T1 construct: purchased CHEMICON HTS066M
T1 sequence (P49146 1-381): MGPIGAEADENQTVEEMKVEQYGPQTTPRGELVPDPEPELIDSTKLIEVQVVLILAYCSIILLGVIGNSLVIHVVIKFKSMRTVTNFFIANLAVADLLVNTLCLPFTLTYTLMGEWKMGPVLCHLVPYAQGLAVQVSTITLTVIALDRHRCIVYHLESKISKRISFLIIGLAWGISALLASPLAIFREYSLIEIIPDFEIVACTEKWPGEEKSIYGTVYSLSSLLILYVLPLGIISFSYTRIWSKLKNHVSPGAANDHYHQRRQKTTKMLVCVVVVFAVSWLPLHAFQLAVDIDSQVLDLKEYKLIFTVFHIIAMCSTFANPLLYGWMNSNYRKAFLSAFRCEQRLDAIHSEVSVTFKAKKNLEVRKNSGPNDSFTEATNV
How it was run: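 IC50 values come from nonlinear regression of sigmoidal dose-response curves of filter-bound radioactivity. Peptides competed with radioligand at human Y2 receptor membranes (0.5 μg protein/well) for 2 h at room temperature in pH 7.4 HEPES buffer containing Mg2+, Ca2+ and 0.2% ovalbumin.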

Row | Ki | SMILES
1 | 11.1 nM | CC(C)CC(=O)N[C@@H](C)C(=O)N1CCC[C@H]1C(=O)N[C@@H](CCC(=O)O)C(=O)N[C@@H](CCCCNC(=O)COCCOCCNC(=O)COCCOCCNC(=O)CC[C@H](NC(=O)CCCCCCCCCCCCCCCCC(=O)O)C(=O)O)C(=O)N1CCC[C@H]1C(=O)N[C@@H](CCC(=O)O)C(=O)N[C@@H](CCC(=O)O)C(=O)N[C@@H](CC(=O)O)C(=O)N[C@H](C(=O)N[C@@H](CO)C(=O)N[C@@H](C)C(=O)N[C@@H](CCC(=O)O)C(=O)N[C@@H](CCC(=O)O)C(=O)N[C@@H](CC(C)C)C(=O)N[C@@H](CCC(N)=O)C(=O)N[C@@H](CCCNC(=N)N)C(=O)N[C@@H](Cc1ccc(O)cc1)C(=O)N[C@@H](Cc1ccc(O)cc1)C(=O)N[C@H](C(=O)N[C@@H](CO)C(=O)N[C@@H](CC(C)C)C(=O)N[C@@H](CCCNC(=N)N)C(=O)N[C@@H](Cc1c[nH]cn1)C(=O)N[C@@H](Cc1ccc(O)cc1)C(=O)N[C@@H](Cc1ccc(O)cc1)C(=O)N[C@@H](CC(N)=O)C(=O)N[C@@H](Cc1c[nH]c2ccccc12)C(=O)N[C@@H](CC(C)C)C(=O)N[C@H](C(=O)N[C@@H](CCCNC(=N)N)C(=O)N[C@@H](CCC(N)=O)C(=O)N[C@@H](CCCNC(=N)N)C(=O)N[C@@H](Cc1ccc(O)cc1)C(N)=O)[C@@H](C)O)C(C)C)[C@@H](C)O [Compound 130, N{alpha-4}-(3-methylbutanoyl)-N{epsilon-7}-[2-(2-{2-[2-(2-{2-[(4S)-4-carboxy-4-(17-carboxyheptadecanamido)butanamido]ethoxy}ethoxy)acetamido]ethoxy}ethoxy)acetamido]-[4A,7K,9E,12T,14A, 18Q,22V,28Y,30W,31L]hPYY (4-36)]
2 | 8.54 nM | CC(C)CC(=O)N[C@@H](C)C(=O)N1CCC[C@H]1C(=O)N[C@@H](CCC(=O)O)C(=O)N[C@@H](CCCCNC(=O)COCCOCCNC(=O)COCCOCCNC(=O)CC[C@H](NC(=O)CCCCCCCCCCCCCCCCC(=O)O)C(=O)O)C(=O)N[C@@H](C)C(=O)N[C@@H](CCC(=O)O)C(=O)N[C@@H](CCC(=O)O)C(=O)N[C@@H](CC(=O)O)C(=O)N[C@@H](C)C(=O)N[C@@H](CO)C(=O)N1CCC[C@H]1C(=O)N[C@@H](CCC(=O)O)C(=O)N[C@@H](CCC(=O)O)C(=O)N[C@@H](CC(C)C)C(=O)N[C@@H](CCC(N)=O)C(=O)N[C@@H](CCCNC(=N)N)C(=O)N[C@@H](Cc1ccc(O)cc1)C(=O)N[C@@H](Cc1ccc(O)cc1)C(=O)N[C@H](C(=O)N[C@@H](CCC(=O)O)C(=O)N[C@@H](CC(C)C)C(=O)N[C@@H](CCCNC(=N)N)C(=O)N[C@@H](Cc1c[nH]cn1)C(=O)N[C@@H](Cc1ccc(O)cc1)C(=O)N[C@@H](Cc1ccc(O)cc1)C(=O)N[C@@H](CC(N)=O)C(=O)N[C@@H](Cc1c[nH]c2ccccc12)C(=O)N[C@@H](CC(C)C)C(=O)N[C@H](C(=O)N[C@@H](CCCNC(=N)N)C(=O)N[C@@H](CCC(N)=O)C(=O)N[C@@H](CCCNC(=N)N)C(=O)N[C@@H](Cc1ccc(O)cc1)C(N)=O)[C@@H](C)O)C(C)C [Compound 131, N{alpha-4}-(3-methylbutanoyl)-N{epsilon-7}-[2-(2-{2-[2-(2-{2-[(4S)-4-carboxy-4-(17-carboxyheptadecanamido)butanamido]ethoxy}ethoxy)acetamido]ethoxy}ethoxy)acetamido]-[4A,7K,8A,9E,18Q,22V,23E,28Y,30W,31L]hPYY (4-36)]
3 | 1.17 nM | CC[C@H](C)[C@H](NC(=O)[C@H](CCC(=O)O)NC(=O)[C@H](CCC(=O)O)NC(=O)[C@@H]1CCCN1C(=O)[C@H](CO)NC(=O)[C@H](C)NC(=O)[C@H](CC(=O)O)NC(=O)[C@H](CCC(=O)O)NC(=O)[C@H](CCC(=O)O)NC(=O)[C@@H]1CCCN1C(=O)[C@H](CCCCNC(=O)COCCOCCNC(=O)COCCOCCNC(=O)CC[C@H](NC(=O)CCCCCCCCCCCCCCCCC(=O)O)C(=O)O)NC(=O)[C@H](CCC(=O)O)NC(=O)[C@@H]1CCCN1C(=O)[C@H](C)NC(=O)CC(C)C)C(=O)N[C@@H](CCC(N)=O)C(=O)N[C@@H](CCCNC(=N)N)C(=O)N[C@@H](Cc1ccc(O)cc1)C(=O)N[C@@H](Cc1ccc(O)cc1)C(=O)N[C@H](C(=O)N[C@@H](CCC(=O)O)C(=O)N[C@@H](CC(C)C)C(=O)N[C@@H](CCCNC(=N)N)C(=O)N[C@@H](Cc1c[nH]cn1)C(=O)N[C@@H](Cc1ccc(O)cc1)C(=O)N[C@@H](Cc1ccc(O)cc1)C(=O)N[C@@H](CC(N)=O)C(=O)N[C@@H](Cc1c[nH]c2ccccc12)C(=O)N[C@@H](CC(C)C)C(=O)N[C@H](C(=O)N[C@@H](CCCNC(=N)N)C(=O)N[C@@H](CCC(N)=O)C(=O)N[C@@H](CCCNC(=N)N)C(=O)N[C@@H](Cc1ccc(O)cc1)C(N)=O)[C@@H](C)O)[C@@H](C)O [Compound 134, N{alpha-4}-(3-methylbutanoyl)-N{epsilon-7}-[2-(2-{2-[2-(2-{2-[(4S)-4-carboxy-4-(17-carboxyheptadecanamido)butanamido]ethoxy}ethoxy)acetamido]ethoxy}ethoxy)acetamido]-[4A,7K,9E,17I,18Q,22T,23E,28Y,30W,31L]hPYY (4-36)]
4 | 1.31 nM | CC(C)CC(=O)N[C@@H](C)C(=O)N1CCC[C@H]1C(=O)N[C@@H](CCC(=O)O)C(=O)N[C@@H](CCCCNC(=O)COCCOCCNC(=O)COCCOCCNC(=O)CC[C@H](NC(=O)CCCCCCCCCCCCCCCCC(=O)O)C(=O)O)C(=O)N1CCC[C@H]1C(=O)N[C@@H](CCC(=O)O)C(=O)N[C@@H](C)C(=O)N[C@@H](CC(=O)O)C(=O)N[C@@H](C)C(=O)N[C@@H](CO)C(=O)N1CCC[C@H]1C(=O)N[C@@H](CCC(=O)O)C(=O)N[C@@H](CCC(=O)O)C(=O)N[C@@H](CC(C)C)C(=O)N[C@@H](CCC(N)=O)C(=O)N[C@@H](CCCNC(=N)N)C(=O)N[C@@H](Cc1ccc(O)cc1)C(=O)N[C@@H](Cc1ccc(O)cc1)C(=O)N[C@H](C(=O)N[C@@H](CCC(=O)O)C(=O)N[C@@H](CC(C)C)C(=O)N[C@@H](CCCNC(=N)N)C(=O)N[C@@H](Cc1c[nH]cn1)C(=O)N[C@@H](Cc1ccc(O)cc1)C(=O)N[C@@H](Cc1ccc(O)cc1)C(=O)N[C@@H](CC(N)=O)C(=O)N[C@@H](Cc1c[nH]c2ccccc12)C(=O)N[C@@H](CC(C)C)C(=O)N[C@H](C(=O)N[C@@H](CCCNC(=N)N)C(=O)N[C@@H](CCC(N)=O)C(=O)N[C@@H](CCCNC(=N)N)C(=O)N[C@@H](Cc1ccc(O)cc1)C(N)=O)[C@@H](C)O)C(C)C [Compound 135, N{alpha-4}-(3-methylbutanoyl)-N{epsilon-7}-[2-(2-{2-[2-(2-{2-[(4S)-4-carboxy-4-(17-carboxyheptadecanamido)butanamido]ethoxy}ethoxy)acetamido]ethoxy}ethoxy)acetamido]-[4A,7K,9E,10A,18Q,22V,23E,28Y,30W,31L]hPYY (4-36)]
5 | 0.89 nM | CC(C)CC(=O)N[C@@H](C)C(=O)N1CCC[C@H]1C(=O)N[C@@H](CCC(=O)O)C(=O)N[C@@H](CCCCNC(=O)COCCOCCNC(=O)COCCOCCNC(=O)CC[C@H](NC(=O)CCCCCCCCCCCCCCCCC(=O)O)C(=O)O)C(=O)N1CCC[C@H]1C(=O)N[C@@H](CCC(=O)O)C(=O)N[C@@H](C)C(=O)N[C@@H](CC(=O)O)C(=O)N[C@@H](CO)C(=O)N[C@@H](CO)C(=O)N1CCC[C@H]1C(=O)N[C@@H](CCC(=O)O)C(=O)N[C@@H](CCC(=O)O)C(=O)N[C@@H](CC(C)C)C(=O)N[C@@H](CCC(N)=O)C(=O)N[C@@H](CCCNC(=N)N)C(=O)N[C@@H](Cc1ccc(O)cc1)C(=O)N[C@@H](Cc1ccc(O)cc1)C(=O)N[C@H](C(=O)N[C@@H](CO)C(=O)N[C@@H](CC(C)C)C(=O)N[C@@H](CCCNC(=N)N)C(=O)N[C@@H](Cc1c[nH]cn1)C(=O)N[C@@H](Cc1ccc(O)cc1)C(=O)N[C@@H](Cc1ccc(O)cc1)C(=O)N[C@@H](CC(N)=O)C(=O)N[C@@H](Cc1c[nH]c2ccccc12)C(=O)N[C@@H](CC(C)C)C(=O)N[C@H](C(=O)N[C@@H](CCCNC(=N)N)C(=O)N[C@@H](CCC(N)=O)C(=O)N[C@@H](CCCNC(=N)N)C(=O)N[C@@H](Cc1ccc(O)cc1)C(N)=O)[C@@H](C)O)C(C)C [Compound 136, N{alpha-4}-(3-methylbutanoyl)-N{epsilon-7}-[2-(2-{2-[2-(2-{2-[(4S)-4-carboxy-4-(17-carboxyheptadecanamido)butanamido]ethoxy}ethoxy)acetamido]ethoxy}ethoxy)acetamido]-[4A,7K,9E,10A,12S,18Q,22V,28Y,30W,31L]hPYY (4-36)] (Isovaleryl-APEK([AEEA-AEEA-γGlu-C18 diacid])PEADSSPEELQRYYVSLRHYYNWLTRQRY-NH2)
